Data published in patent publication US9102648B1, “Bioavailable diacylhydrazine ligands for modulating the expression of exogenous genes via an ecdysone receptor complex” (Intrexon Corporation, priority 2003, dated 2015).
Like-named read-outs stand apart in the source and are kept apart here.

Legend:
[1] = molecular target: T1, Bombyx mori EcR (VP16 fusion, CVBE switch construct) (Bombyx mori, UniProt P49881); experiment: Z3 Assay (HEK-293 cells with CVBE and 6XEcRE LacZ, β-galactosidase reporter); conditions: for Fold Induction, Z3 Assay, 3.3 uM: 3.3 uM ligand; for Fold Induction, Z3 Assay, 3.3 uM / Fold Induction, Z3 Assay, 33 uM: ligand treated / DMSO treated cells; for Fold Induction, Z3 Assay, 33 uM: 33 uM ligand; for Z3 assay Rel Max FI: maximum fold induction at any concentration relative to that of GS-E ligand; for fold induction at 3.3 µM: HEK293, read-out: Fold Induction, Z3 Assay, 3.3 uM; for fold induction at 33 µM: HEK293, read-out: Fold Induction, Z3 Assay, 33 uM
T1 sequence (P49881 86-606): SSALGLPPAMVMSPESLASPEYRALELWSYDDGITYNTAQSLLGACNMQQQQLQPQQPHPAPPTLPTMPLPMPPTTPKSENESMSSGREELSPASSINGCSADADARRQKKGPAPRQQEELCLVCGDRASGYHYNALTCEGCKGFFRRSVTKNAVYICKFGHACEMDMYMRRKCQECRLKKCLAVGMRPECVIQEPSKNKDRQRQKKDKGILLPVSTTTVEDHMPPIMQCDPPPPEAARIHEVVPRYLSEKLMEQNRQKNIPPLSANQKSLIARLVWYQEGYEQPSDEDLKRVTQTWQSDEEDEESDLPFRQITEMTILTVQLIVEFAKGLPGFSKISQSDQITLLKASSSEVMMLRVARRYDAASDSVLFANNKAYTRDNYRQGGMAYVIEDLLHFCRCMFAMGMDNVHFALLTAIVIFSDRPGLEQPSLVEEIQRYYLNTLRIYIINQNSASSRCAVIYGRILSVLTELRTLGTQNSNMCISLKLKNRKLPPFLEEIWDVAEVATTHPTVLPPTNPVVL
T1 sequence (P19793 1-462 partner): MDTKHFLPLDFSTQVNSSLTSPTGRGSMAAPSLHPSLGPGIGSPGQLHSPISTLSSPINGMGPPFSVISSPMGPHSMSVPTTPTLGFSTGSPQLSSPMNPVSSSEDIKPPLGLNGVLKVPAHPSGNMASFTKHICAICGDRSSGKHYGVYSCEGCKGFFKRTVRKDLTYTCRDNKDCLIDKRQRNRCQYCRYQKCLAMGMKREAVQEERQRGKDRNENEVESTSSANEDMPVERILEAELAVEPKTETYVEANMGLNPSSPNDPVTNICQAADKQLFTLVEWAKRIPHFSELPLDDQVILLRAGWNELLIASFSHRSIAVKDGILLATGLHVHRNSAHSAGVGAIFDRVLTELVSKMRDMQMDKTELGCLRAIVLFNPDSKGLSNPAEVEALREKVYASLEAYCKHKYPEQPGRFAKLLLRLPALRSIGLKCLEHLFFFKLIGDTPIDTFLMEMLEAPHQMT

[2] = molecular target: GAL4 DBD-CfEcR(DEF)/VP16AD-MmRXRE (Choristoneura fumiferana, UniProt O77240); experiment: 13B3 Assay (CHO stable cell line, luciferase reporter); conditions: for Fold Induction, 13B3 Assay, 33 uM: 33 uM ligand; for Fold Induction, 13B3 Assay, 33 uM / Fold Induction, 13B3 Assay, 3.3 uM: RLU ligand treated / RLU DMSO treated cells; for Fold Induction, 13B3 Assay, 3.3 uM: 3.3 uM ligand; for 13B3 assay Rel Max FI: maximum fold induction at any concentration relative to that of GS-E ligand, CHO 13B3 cells; for fold induction at 3.3 µM: read-out: Fold Induction, 13B3 Assay, 3.3 uM; for fold induction at 33 µM: read-out: Fold Induction, 13B3 Assay, 33 uM
Text: GAL4 DBD-CfEcR(DEF)/VP16AD-MmRXRE:
The wild-type D, E, and F domains from spruce budworm Choristoneura fumiferana EcR (“CfEcR-DEF”; SEQ ID NO: 1) were fused to a GALA DNA binding domain (“Gal4DBD1-147”; SEQ ID NO: 2) and placed under the control of the SV40e promoter of pM vector (PT3119-5, Clontech, Palo Alto, Calif.). The D and E domains from Mus Musculus RXR (“MmRXR-DE”; SEQ ID NO: 11) were fused to the transactivation domain from VP16 (“VP16AD”; SEQ ID NO: 6) and placed under the control of the SV40e promoter of the pVP16 vector (PT3127-5, Clontech, Palo Alto, Calif.).
CHO cells were transiently transfected with transcription cassettes for GAL4 DBD-CJEcR(DEF) and for VP16AD-MmRXRE controlled by SV40e promoters. Stably transfected cells were selected using Hygromycin. Individually isolated CHO cell clones were transiently transfected with a GALA RE-luciferase reporter (pFR-Luc, Stratagene, La Jolla, Calif.). The 13B3 clone was selected using Zeocin.
Cells were trypsinized and diluted to a concentration of 2.5×10^4 cells mL. 100 μL of cell suspension was placed in each well of a 96 well plate and incubated at 37° C. under 5% CO2 for 24 h. Ligand stock solutions were prepared in DMSO and diluted 300 fold for all treatments. Dose response testing consisted of 8 concentrations ranging from 33 μM to 0.01 μM.
Luciferase reporter gene expression was measured 48 h after cell treatment using Bright-Glo™ Luciferase Assay System from Promega (E2650). Luminescence was detected at room temperature using a Dynex MLX microtiter plate luminometer.
Each assay was conducted in two separate wells, and the two values were averaged. Fold inductions were calculated by dividing relative light units (“RLU”) in ligand treated cells with RLU in DMSO treated cells. EC50s were calculated from dose response data using a three-parameter logistic model.

[3] = read-out: Z3 assay EC50, HEK-293 Z3 cells, β-galactosidase reporter, average of two wells
[4] = read-out: 13B3 EC50, CHO 13B3 stable cell line, luciferase reporter, 48 h, average of two wells

Row | SMILES | Fold Induction, Z3 Assay, 3.3 uM ([1]; average of two wells) | Fold Induction, Z3 Assay, 33 uM ([1]; average of two wells) | Z3 assay Rel Max FI ([1]; HEK-293 Z3 cells) | EC50 [1, 3] | Fold Induction, 13B3 Assay, 33 uM ([2]; average of two wells) | Fold Induction, 13B3 Assay, 3.3 uM ([2]; average of two wells) | 13B3 assay Rel Max FI [2] | EC50 [2, 4] | EC50 [1] | fold induction at 3.3 µM [1] | fold induction at 33 µM [1] | EC50 [2] | fold induction at 3.3 µM [2] | fold induction at 33 µM [2]
1 | CCc1ccc(C(=O)NN(C(=O)c2cc(C)ccc2[N+](=O)[O-])C(C)(C)C)cc1 [RG-101398] | 1138 | 403 | 0.712 | 282 nM | 159 |  |  |  |  |  |  |  |  | 
2 | CC(C)(C)N(NC(=O)c1ccc(Br)cc1)C(=O)c1cc(Cl)cc(Cl)c1 [RG-101759] | 796 | 158 | 0.639 | 331 nM | 137 | 623 | 0.336 | 877 nM |  |  |  |  |  | 
3 | Cc1cc(C)cc(C(=O)N(NC(=O)c2ccc3c(c2F)COCO3)C(C)(C)C)c1 [RG-115068] | 54 | 802 | 0.804 | 21000 nM | 1500 | 2828 | 0.722 | 926 nM |  |  |  |  |  | 
4 | CCc1ccc(C(=O)NN(C(=O)c2ccc(OC)nc2OC)C(C)(C)C)c(F)c1 [RG-115050] | 424 | 1446 | 0.808 | 282 nM | 894 | 2027 | 0.724 | 762 nM |  |  |  |  |  | 
5 | CCc1ccc(C(=O)NN(C(=O)c2cc(C)c(Cl)c(C)c2)C(C)(C)C)cc1 [RG-101862] | 717 | 250 | 0.866 | 269 nM | 293 | 3279 | 0.861 | 1050 nM |  |  |  |  |  | 
6 | COc1cccc(C(=O)NN(C(=O)c2cc(F)ccc2F)C(C)(C)C)c1C [RG-100603] |  | 453 |  |  | 570 |  |  |  |  |  |  |  |  | 
7 | Cc1cc(C)cc(C(=O)N(NC(=O)c2ccc3c(c2Cl)COCO3)C(C)(C)C)c1 [RG-115532] | 530 |  | 0.933 | 129 nM | 738 | 908 | 0.835 | 518 nM |  |  |  |  |  | 
8 | CCc1c(OC)cccc1C(=O)NN(C(=O)c1cc(OC)c(OC(C)=O)c(OC)c1)C(C)(C)C [RG-115191] | 386 |  | 0.934 | 2400 nM |  | 3 | 1.513 | > 50000 nM |  |  |  |  |  | 
9 | CC(C)(C)N(NC(=O)c1c(F)ccc(F)c1F)C(=O)c1ccc(F)cc1Cl [RG-100620] | 710 | 428 | 0.869 | 2400 nM | 13982 |  |  |  |  |  |  |  |  | 
10 | Cc1cc(C)cc(C(=O)N(NC(=O)c2cccc([N+](=O)[O-])c2C)C(C)(C)C)c1 [RG-100915] | 532 | 1292 | 0.912 | 1000 nM | 525 | 133 | 0.552 | 4450 nM |  |  |  |  |  | 
11 | CCCCC(CC)N(NC(=O)c1cccc(C)c1C)C(=O)c1ccccc1 (racemic) [RG-103361] | 171 | 244 | 0.938 | 526 nM | 2262 | 504 | 0.758 | 28000 nM |  |  |  |  |  | 
12 | Cc1c(C(=O)NN(C(=O)c2cc(F)cc(C(F)(F)F)c2)C(C)(C)C)ccc2c1OCCO2 [RG-115169] | 443 |  | 0.956 | 347 nM |  | 405 | 0.618 | 497 nM |  |  |  |  |  | 
13 | Cc1ccc(C(=O)NN(C(=O)c2cc(C)cc(C)c2)C(C)(C)C)cc1 [RG-101542] | 1151 | 324 | 0.793 | 324 nM | 439 |  |  |  |  |  |  |  |  | 
14 | CCc1c(OC)cccc1C(=O)NN(C(=O)c1nc(SC)cnc1Cl)C(C)(C)C [RG-115716] |  | 66 |  |  |  | 3 |  |  |  |  |  |  |  | 
15 | COc1cccc(C(=O)NN(C(=O)c2cc(C)cc(C)c2)C(C)(C)C)c1CSC [RG-115358, 3-Methoxy-2-methylsulfanylmethyl-benzoic acid N′-tert-butyl-N′-(3,5-dimethyl-benzoyl)-hydrazide] |  |  | 0.48 |  |  |  | 0.20 |  | 9450 nM | 33 | 769 | > 50000 nM | 1 | 584
16 | CCc1ccc(C(=O)NN(C(=O)c2ccc(F)cc2)C(C)(C)C)c(F)c1 [RG-100901] | 1527 | 185 | 0.918 | 316 nM | 882 |  |  |  |  |  |  |  |  | 
17 | Cc1cc(C)cc(C(=O)N(NC(=O)c2ccc3c(c2)CCO3)C(C)(C)C)c1 [RG-101531] | 1130 | 428 |  | 85 nM | 274 |  |  |  |  |  |  |  |  | 
18 | COc1cc(OC)cc(C(=O)N(NC(=O)c2cccc(C)c2C)C(C)(C)C)c1 [RG-100764] | 915 | 369 | 0.900 | 2340 nM | 3814 |  |  |  |  |  |  |  |  | 
19 | CNCc1c(OC)cccc1C(=O)NN(C(=O)c1cc(C)cc(C)c1)C(C)(C)C [RG-115079, 3,5-dimethyl-benzoic acid N-tert-butyl-N′-(2-methylaminomethyl-3-methoxy-benzoyl)-hydrazide] |  |  | 0.02 |  |  |  | 0.20 |  | > 50000 nM | 1 |  | 20 nM | 3 | 
20 | COc1cccc(C(=O)NN(C(=O)c2cc(C)cc(C)c2)C(C)(C)C)c1CCl [RG-115490, 3,5-dimethyl-benzoic acid N-tert-butyl-N′-(2-chloromethyl-3-methoxy-benzoyl)-hydrazide] |  |  | 0.44 |  |  |  | 1.01 |  | 6350 nM | 123 | 814 | > 50000 nM | 2 | 844
